Experiments:
[1] = Carbonyl compound-trapping effect of biguanide agents in phosphate buffer (Example 1); details: 3 mM biguanide agent, 0.1 mM carbonyl compounds each, 0.1M phosphate buffer pH7.4, 37° C., over incubation period; HPLC
[2] = as above; details: 3 mM biguanide agent, 0.1 mM carbonyl compounds each, 0.1M phosphate buffer pH7.4, 37° C., over incubation period; HPLC; remark: listed apart in the source

Row | SMILES | concentration of glyoxal [1] | concentration of methylglyoxal [2]
1 | CCCCNC(=N)NC(=N)N [buformin, butyl biguanide] | markedly decreased | markedly decreased
2 | N=C(N)NC(=N)NCCc1ccccc1 [phenformin, phenethyl biguanide] | markedly decreased | markedly decreased

Source: patent US7169407B1, “Carbonyl stress-decreasing agent” (Kiyoshi Kurokawa, priority 1999, dated 2007)
